# Experimental data: patent publication US20220288060A1, “Treatment of Opioid Withdrawal” (Kinoxis Therapeutics Pty Ltd, priority 2019, published 2022)
# Several values for one entry are separate records, joined by “and”; a condition that tells them apart may be missing. Equal entries are not always repeated. Entries after “also recorded” stand apart in the source; their conditions may differ.
# Tests used:
# [1] = test system: naloxone precipitated oxycodone withdrawal in C57BL/6 mice; assay: Naloxone precipitated oxycodone withdrawal-induced jumping, two salt forms (Example 4, Experiment 2.1); assay type: in vivo, mouse; conditions: 7.3 mg/kg FBE i.p.; for Oxycodone withdrawal-induced jumping vs OXY_VEH: CMPD1-PO4 p<0.01, CMPD1-2HCL p<0.001; for Withdrawal-induced jumping, comparison of the two salt forms: OXY_CMPD1-PO4 vs OXY_2 HCL p=0.901
# C57BL/6 mice [2] = assay: Open field locomotor activity test (Experiment 1.1); assay type: in vivo, mouse; conditions: 5 mg/kg i.p.; time post dose 75-80; individual mice 7-12
# C57BL/6 mice [3] = assay: as above; assay type: in vivo, mouse
# Protocol: N=18 adult male C57BL/6 mice received either 0, 5 or 10 mg/kg CMPD1-2HCL (i.p.; n=6 per condition). Fifteen minutes after receiving their i.p. injection of CMPD1-2HCL mice were placed individually into a novel 40 (l)×40 (w)×40 (h) cm locomotor testing arena. Sessions were captured by overhead cameras and videos were analysed by using the automated behaviour tracking software CleverSys Topscan (CleverSys, Virginia, USA), which provided the distance travelled by each mouse in each 5 min time bin over the 60 minute locomotor testing session. Data were analysed by SPSS using mixed model ANOVA.
# [4] = test system: naloxone precipitated oxycodone withdrawal in C57BL/6 mice; assay: Naloxone precipitated oxycodone withdrawal: jumping and paw tremors (Experiment 1.2); assay type: in vivo, mouse; conditions: for Number of jumps for each mouse in the 30 min test session / Total duration of paw tremors for each mouse in the 30 minute test session: oxycodone condition mice, individual mice
# Protocol: Adult male C57BL/6 mice (N=40) were allocated to one of five conditions (n=8 per condition):
# (§1) Mice in the oxycodone conditions received i.p. injections of oxycodone for 5 days according to the schedule and doses set out in Table 1. The morning and afternoon doses were separated by 7 h. Mice in the vehicle condition received injections of vehicle saline instead of oxycodone. One-hour-and-forty-five minutes after the morning injection on day 5, mice were administered their i.p. dose of CMPD1-2HCL. Fifteen minutes later they received an i.p. injection of 10 mg/kg naloxone (oxycodone groups) or saline (vehicle group), and proceeded immediately to testing.
# Testing involved placing mice individually into a 20 (l)×20 (w)×30 (h) cm arena for 30 min. Sessions were captured via a side view high speed (120 fps), high resolution (4K) camera. Number of jumps and total duration of paw tremors were scored from the videos by an experienced experimenter blind to conditions.
# Data were analysed by SPSS using oneway ANOVA and planned contrasts.
# [5] = test system: naloxone precipitated oxycodone withdrawal in C57BL/6 mice; assay: Gastrointestinal symptoms of opioid withdrawal: fecal boli and diarrhea (Example 3); assay type: in vivo, mouse; conditions: 10 mg/kg i.p.
# Protocol: In this example, the ability of CMPD1-2HCL to inhibit the gastrointestinal symptoms of opioid withdrawal was assessed using a murine model.
# Adult male C57BL/6 mice ([…]) were allocated to one of four conditions (n=10 per condition):
# as §1, with “conditions (OXY)” for “conditions”, “7.” for “1.”, “CMPD1-2HCL (10 mg/kg).” for “CMPD1-2HCL.”
# Testing involved placing mice individually into a 20 (l)×20 (w)×30 (h) cm arena for 30 min. The number of fecal boli were counted at the end of the session and whether or not the mouse had diarrhea.
# Data were analysed using ANOVA and planned contrasts for fecal boli and Fisher's exact test for diarrhea.
# [6] = test system: c-fos protein expression in the brain; assay: Naloxone-precipitated opioid withdrawal-induced c-fos protein expression in the brain (Example 2); assay type: in vivo, mouse; conditions: 10 mg/kg i.p.; 8 brain regions; 75 minutes after naloxone
# Protocol: In this example, the ability of Compound 1 to inhibit naloxone-precipitated opioid withdrawal-induced c-fos protein expression in the brain was studied. C-fos is a protein marker of neural activation. Compound 1 was administered in dihydrochloride salt form (CMPD1-2HCL).
# N=40 male C57BL/6 mice were assigned to one of the following four conditions:
# Mice in the oxycodone (OXY) conditions received i.p. injections of oxycodone for 9 days with increasing doses of 9, 17.8, 23.7 and 33 mg/kg (twice daily on days 1-8, with dose increasing every other day). The morning and afternoon doses were separated by 7 h. Mice in the vehicle condition (VEH) received injections of vehicle saline instead of oxycodone. One-hour-and-forty-five minutes after the morning injection on day 9, mice were administered their i.p. dose of CMPD1-2HCL (10 mg/kg at an injection volume of […]) or VEH. Fifteen minutes later they received an i.p. injection of 10 mg/kg naloxone (OXY groups) or saline (VEH groups) to precipitate withdrawal.
# 75 minutes after their naloxone or saline injection, mice were euthanised by sodium pentobarbitone overdose, and intracardiac puncture perfusion fixation was performed with 4% paraformaldehyde, and brains were then collected for immunohistochemical processing.
# Data were analysed by SPSS using two-way ANOVA and planned contrasts.
# [7] = clinical trials; cited from earlier work
smiles,measurement,setting,value
Cl.Cl.Cn1ncc2c1Nc1ccccc1NC2 [CMPD1-2HCL],Oxycodone withdrawal-induced jumping vs OXY_VEH,[1],significantly inhibited
same,"Withdrawal-induced jumping, comparison of the two salt forms",[1],did not differ significantly
same,Distance travelled during time bin,C57BL/6 mice [2],3441.42 mm and 8422.46 mm and 11136.92 mm and 9156.71 mm and 2402.89 mm and 1364.63 mm
same,Distance travelled during time bin,"C57BL/6 mice [3]; 5 mg/kg i.p., time post dose 15-20 (5 min bin), individual mice 7-12",15043.46 mm and 20271.67 mm and 23636.81 mm and 18238.34 mm and 16051.42 mm and 16442.58 mm
same,Distance travelled during time bin,"C57BL/6 mice [3]; 5 mg/kg i.p., time post dose 20-25, individual mice 7-12",20386.17 mm and 13996.02 mm and 16449.1 mm and 11919.46 mm and 11756.3 mm and 10974.55 mm
same,Distance travelled during time bin,"C57BL/6 mice [3]; 5 mg/kg i.p., time post dose 25-30, individual mice 7-12",11089.15 mm and 11425.88 mm and 11764.23 mm and 8462.92 mm and 10127.95 mm and 8553.13 mm
same,Distance travelled during time bin,"C57BL/6 mice [3]; 5 mg/kg i.p., time post dose 30-35, individual mice 7-12",13221.16 mm and 7779.42 mm and 11134.18 mm and 8664.63 mm and 9823.55 mm and 4905.54 mm
same,Distance travelled during time bin,"C57BL/6 mice [3]; 5 mg/kg i.p., time post dose 35-40, individual mice 7-12",15282.34 mm and 6791.58 mm and 8208.55 mm and 11776.57 mm and 10597.55 mm and 5280.25 mm
same,Distance travelled during time bin,"C57BL/6 mice [3]; 5 mg/kg i.p., time post dose 40-45, individual mice 7-12",7068.09 mm and 9050.59 mm and 7493.64 mm and 9121.74 mm and 5308.25 mm and 6050.2 mm
same,Distance travelled during time bin,"C57BL/6 mice [3]; 5 mg/kg i.p., time post dose 45-50, individual mice 7-12",5367.28 mm and 6712.87 mm and 5587.1 mm and 5518.04 mm and 9993.79 mm and 5466.54 mm
same,Distance travelled during time bin,"C57BL/6 mice [3]; 5 mg/kg i.p., time post dose 50-55, individual mice 7-12",945.3 mm and 7073.77 mm and 10568.53 mm and 9463.89 mm and 5234.55 mm and 6665.74 mm
same,Distance travelled during time bin,"C57BL/6 mice [3]; 5 mg/kg i.p., time post dose 55-60, individual mice 7-12",3362.81 mm and 8088.81 mm and 11051.63 mm and 11843.34 mm and 6386.55 mm and 4645.85 mm
same,Distance travelled during time bin,"C57BL/6 mice [3]; 5 mg/kg i.p., time post dose 60-65, individual mice 7-12",6133.83 mm and 10365.45 mm and 10059.86 mm and 11154.54 mm and 8969.03 mm and 4893.44 mm
same,Distance travelled during time bin,"C57BL/6 mice [3]; 5 mg/kg i.p., time post dose 65-70, individual mice 7-12",5268.88 mm and 4809.55 mm and 6121.25 mm and 4100.88 mm and 9397.98 mm and 4757.22 mm
same,Effect on locomotor activity (distance travelled),"C57BL/6 mice [3]; 5 and 10 mg/kg i.p., main effect of dose p=0.392, time by dose interaction p=0.143",does not significantly impact locomotor activity; also recorded: does not supress locomotor activity
same,Distance travelled during time bin,"C57BL/6 mice [3]; Table 3, 5 mg/kg, i.p., time post dose 35-40, individual mice 13-18",11756.13 mm and 8046.38 mm (2×) and 12860.87 mm and 13271.28 mm and 10054.85 mm
same,Distance travelled during time bin,"C57BL/6 mice [3]; Table 3, 5 mg/kg, i.p., time post dose 40-45, individual mice 13-18",7682.41 mm and 2222.65 mm (2×) and 11152.11 mm and 12391.75 mm and 4683.51 mm
same,Distance travelled during time bin,"C57BL/6 mice [3]; Table 3, 5 mg/kg, i.p., time post dose 45-50, individual mice 13-18",11290.93 mm and 6482.48 mm (2×) and 10743.61 mm and 12658.5 mm and 8082.58 mm
same,Distance travelled during time bin,"C57BL/6 mice [3]; Table 3, 5 mg/kg, i.p., time post dose 55-60, individual mice 13-18",28970.94 mm and 12316.3 mm (2×) and 32680.43 mm and 27725.23 mm and 19894.04 mm
same,Distance travelled during time bin,"C57BL/6 mice [3]; Table 3, 5 mg/kg, i.p., time post dose 60-65, individual mice 13-18",17509.3 mm and 10864.14 mm (2×) and 28788.31 mm
same,Jumping relative to mice not undergoing oxycodone withdrawal (VEH 0CMPD1),"[4]; 2.5, 5, 10 mg/kg i.p., p<0.001, p<0.001, p=0.011",still showed elevated jumping
same,Oxycodone withdrawal-induced jumping vs OXCD 0CMPD1,"[4]; 2.5, 5, 10 mg/kg i.p., p=0.023, p=0.018, p<0.001",significantly inhibited
same,Dysphoric and somatic symptoms (jumping and paw tremors) of oxycodone withdrawal,"[4]; 2.5-10 mg/kg i.p., conclusion",dose dependently inhibited
same,Paw tremors relative to mice not undergoing oxycodone withdrawal (VEH 0CMPD1),"[4]; 5 and 10 mg/kg i.p., p=0.204, p=0.4 (2.5 mg/kg p<0.01)",no longer had significantly elevated paw tremors
same,Oxycodone withdrawal-induced paw tremors vs OXCD 0CMPD1,"[4]; highest dose 10 mg/kg i.p., p=0.033 (2.5 mg/kg p=0.898; 5 mg/kg p=0.083)",significantly inhibited
same,Number of jumps for each mouse in the 30 min test session,"[4]; 2.5 mg/kg i.p., 2.5 mg/kg",86 and 52 and 58 and 50 (2×) and 31 and 92 and 68
same,Total duration of paw tremors for each mouse in the 30 minute test session,"[4]; 2.5 mg/kg i.p., 2.5 mg/kg",12.4 s and 2.3 s and 78.4 s and 48 s and 27.1 s and 20.4 s and 0.2 s and 0.4 s
same,Number of jumps for each mouse in the 30 min test session,"[4]; 5 mg/kg i.p., 5 mg/kg",51 and 35 and 61 and 48 (2×) and 30 and 136 and 67
same,Total duration of paw tremors for each mouse in the 30 minute test session,"[4]; 5 mg/kg i.p., 5 mg/kg",8.2 seconds and 21.4 seconds and 3 seconds (2×) and 18.5 seconds and 2.1 seconds and 3.2 seconds and 17 seconds
same,Number of jumps for each mouse in the 30 min test session,"[4]; 10 mg/kg i.p., 10 mg/kg",25 and 120 and 17 and 33 (2×) and 26 and 51 and 34
same,Total duration of paw tremors for each mouse in the 30 minute test session,"[4]; 10 mg/kg i.p., 10 mg/kg",9.9 seconds and 0 seconds (3×) and 6 seconds and 21.5 seconds and 3.3 seconds and 9.6 seconds
same,Number of mice suffering from diarrhea,[5]; Fisher's exact test,inhibited
same,Amount of fecal boli produced during the 30 min session,[5]; p<0.001 vs opioid withdrawal,significantly inhibited
same,Proportion of mice suffering from diarrhea,"[5]; OXY condition, n=10, OXY, VEH 90%, VEH, VEH 0%",30%
same,Withdrawal induced neural activation (c-fos positive cells),[6],significantly inhibited withdrawal induced neural activation
Cn1ncc2c1Nc1ccccc1NC2.O=P(O)(O)O [CMPD1-PO4],Oxycodone withdrawal-induced jumping vs OXY_VEH,[1],significantly inhibited
same,"Withdrawal-induced jumping, comparison of the two salt forms",[1],did not differ significantly
CC(Oc1c(Cl)cccc1Cl)C1=NCCN1 (stereo not drawn) [lofexidine],Improvements in acute opioid withdrawal symptoms and treatment retention,[7],only modest improvements
same,Side effects,[7],"hypotension, bradycardia and insomnia"
